Reference: patent US20190247449A1, “COMPOSITIONS COMPRISING A NON-PATHOGENIC BACTERIA AND METHODS FOR […] AND ANIMAL HOSTS FROM FUNGAL, BACTERIAL AND VIRAL DISEASES” (priority 2016, published 2019)

Columns and labels:
Format in all cases: cell-based
[1] = tested on: TNF-α production; experiment: TNF-α determination by ELISA in activated macrophages; settings: RAW 264.7 macrophages activated with LPS and IFN-γ, agents added one hour before, 24 hours
Procedure: (§1) RAW 264.7 macrophages were grown in flat-bottomed flasks using a standard growth medium (DMEM supplemented with 5% FBS, antibiotics and glutamine. The cells were maintained in accordance with standard procedures well known in the art. After the cells reached confluence, they were removed from the flasks using mechanical means and then concentrated by centrifuging and resuspended in a small volume of fresh culture medium. The cell concentration was adjusted with growth medium in order that about 75,000 cells could be added to each well of a 96-well plate. A combination of 25 µg/mL LPS and 10 U/ml IFN-γ DMEM, was used for activation of the macrophages. The various test agents were added to the wells one hour prior to activation. The cells were then incubated for a further 24 hours, prior to assaying the inflammatory mediator production and cell viability.
A sandwich ELISA was used to determine TNF-α concentration. The primary antibody was used at a concentration of […] in PBS. Serial dilutions of TNF-α standard from 0 to 1000 pg/mL in diluent (0.05% Tween-20, 0.1% BSA in PBS) were used as internal standard. TNF-α was detected with a biotinylated second antibody and an avidin peroxidase conjugate with TMB as detection reagent. The color development was monitored at 655 nm, taking readings after every 5 minutes. After 25 minutes, the reaction was stopped using 0.5 M sulphuric acid and the absorbance was measured at 450 nm.

[2] = tested on: NO production; experiment: Nitric oxide production by Griess assay in activated macrophages
Procedure: as §1
The production of NO by the macrophages subjected to the various treatments was assayed using the Griess reagent (equal volumes of 1% sulphanilamide and 0.1% napthyethylene-diamine in 5% HCl). 70 μL of supernatant from each test well was transferred to a fresh 96-well plate and mixed with 70 μL of Griess reagent and the violet color produced was measured at 540 nm.

[3] = tested on: RAW 264.7 macrophages; experiment: Cell viability, Alamar Blue assay; settings: % of untreated control cells
Procedure: as §1
The Alamar Blue assay of viability was performed by adding 100 μL of a 10% Alamar Blue solution to each well and incubating at 37° C. for 1-2 hr. Fluorescence was measured (excitation at 545 nm and emission at 595 nm) and expressed as a percentage of the values in untreated control cells.

[4] = at the IC50 for inhibition of NO
[5] = at the IC50 for inhibition of TNF-α

| Compound | IC50 ([1]; Mus musculus, RAW264.7, read-out: IC50 for the inhibition of TNF-α production) [µg/mL] | IC50 ([2]; Mus musculus, RAW264.7, read-out: IC50 for the inhibition of NO production) [µg/mL] | Cell viability (% of cell survival) [3, 4] | Cell viability (% of cell survival) [3, 5] | IC50 for the inhibition of TNF-α production [1] [µg/mL] | IC50 for the inhibition of NO production ([2]; RAW 264.7 macrophages activated with LPS and IFN-γ, agents added one hour before, 24 hours) [µg/mL] |
| --- | --- | --- | --- | --- | --- | --- |
| C=C[C@](C)(O)CC[C@@H]1[C@@]2(C)CCCC(C)(C)[C@@H]2CC[C@@]1(C)O [Sclareol] | 80 | 40 | 96.20 ± 2.1 % of cell survival | 95.30 ± 2.2 % of cell survival | – | – |
| Naringin | – | – | 90.10 ± 4.2 % of cell survival | 91.50 ± 5.2 % of cell survival | 90 | 40 |
| Steviol glycoside | – | – | 98.20 ± 4.2 % of cell survival | 99.54 ± 4.1 % of cell survival | 80 | – |
